Here are results for 68 sequences from the supplement of paper PMC11208160.

The nature of the data set: recombinant UMI read abundance after kanamycin selection (control-corrected) (log10(CPM+1)); higher = more efficient recombination; extreme values may be limits of the assay; sequences stand for … in AGTGCAGAGAAAATCGGCCAGTTTTCTCTGCCTGCAGTCCGCATGCCGTGGGACCCCTTGGGTTCTAACCTGTTGCCTAGATTTATGCAGCGGACTGCCTTTCTCCCAAAGTGATAAACCGG…AGGTTGGTTTCACT; site = the 11-nt donor. The method, boiled down:
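Each donor and donor-binding-loop pair was tracked by a 12-nt UMI on a plasmid carrying a promoterless kanamycin gene. With a second plasmid supplying a fixed target and T7-inducible IS621 bridge recombinase, the pool was plated in Escherichia coli on IPTG (0.07 mM) plus kanamycin or unselected. Sequencing of recombinant UMIs across the donor–target junction gave counts expressed as log10(CPM+1) after replicate averaging and control-derived scaling.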
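Further: IS621 bridge recombinase in Escherichia coli cells against a fixed T5 target plasmid.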

Consider “CGGCATCCATGGACCGGTTTTCCCGGTAATCCGTATTTGTT (site CGGTATCCTAA)”, for which the “recombinant UMI read abundance (log10)” value was determined as 0.0136.
In the case of “CGGCCAACATGGACCGGTTTTCCCGGTAATCCGTATTTGTC (site CGGCCAACTGA)”, the “recombinant UMI read abundance (log10)” value was found to be 1.56.
On to “CGGCGCTCATGGACCGGTTTTCCCGGTAATCCGTATTTGAT (site CGGCGCTCTAT)”, for which the “recombinant UMI read abundance (log10)” value stood at 2.65.
To “CGGCGTACATGGACCGGTTTTCCCGGTAATCCGTATTTGCT (site CGACGTACTAG)” belongs 1.63.
As to “CGGCGTACATGGACCGGTTTTCCCGGTAATCCGTATTTGCT (site CGCCGTACTAG)”, the “recombinant UMI read abundance (log10)” value is 0.201.
For “CGGCGTACATGGACCGGTTTTCCCGGTAATCCGTATTTGCT (site CGGCGTACTAG)”, the “recombinant UMI read abundance (log10)” value is 2.38.
As for “CGGCGTACATGGACCGGTTTTCCCGGTAATCCGTATTTGCT (site CGTCGTACTAG)”, the “recombinant UMI read abundance (log10)” value is 0.
“CGGCGTACATGGACCGGTTTTCCCGGTAATCCGTATTTGTC (site CGGCGTACTGA)”: the “recombinant UMI read abundance (log10)” value stood at 2.31.
As to “CGGCGTGCATGGACCGGTTTTCCCGGTAATCCGTATTTGAC (site CGGCGTGCTGT)”, the “recombinant UMI read abundance (log10)” value came out at 2.82.
Regarding “CGGCTTCCATGGACCGGTTTTCCCGGTAATCCGTATTTGGA (site CGGCTTCCTTC)”, the “recombinant UMI read abundance (log10)” value amounted to 0.00516.
Regarding “CGGCTTGCATGGACCGGTTTTCCCGGTAATCCGTATTTGCC (site CGGCTTGCTGG)”, the “recombinant UMI read abundance (log10)” value was found to be 0.904.
To “CGGGAAACATGGACCGGTTTTCCCGGTAATCCGTATTTGCA (site CAGGAAACTTG)” belongs 2; to “CGGGAAACATGGACCGGTTTTCCCGGTAATCCGTATTTGCA (site CCGGAAACTTG)”, 1.45; to “CGGGAAACATGGACCGGTTTTCCCGGTAATCCGTATTTGCA (site CGGGAAACTTG)”, 0.914.
Take “CGGGAAACATGGACCGGTTTTCCCGGTAATCCGTATTTGCA (site CTGGAAACTTG)”: the “recombinant UMI read abundance (log10)” value is 1.04.
Consider “CGGGAACCATGGACCGGTTTTCCCGGTAATCCGTATTTGCT (site CGGGAACCTAA)”, for which the “recombinant UMI read abundance (log10)” value came to 0.
As for “CGGGAACCATGGACCGGTTTTCCCGGTAATCCGTATTTGCT (site CGGGAACCTAC)”, the “recombinant UMI read abundance (log10)” value amounted to 0.
The figure for “CGGGAACCATGGACCGGTTTTCCCGGTAATCCGTATTTGCT (site CGGGAACCTAG)” is 0.
Turning to “CGGGAACCATGGACCGGTTTTCCCGGTAATCCGTATTTGCT (site CGGGAACCTAT)”, the “recombinant UMI read abundance (log10)” value stood at 0.
For the sequence “CGGGAGCCATGGACCGGTTTTCCCGGTAATCCGTATTTGAT (site CGGGAACCTAT)”, the “recombinant UMI read abundance (log10)” value is 0.
For the sequence “CGGGAGCCATGGACCGGTTTTCCCGGTAATCCGTATTTGAT (site CGGGACCCTAT)”, the “recombinant UMI read abundance (log10)” value turned out to be 0.00515.
The figure for “CGGGAGCCATGGACCGGTTTTCCCGGTAATCCGTATTTGAT (site CGGGAGCCTAT)” is 0.266; for “CGGGAGCCATGGACCGGTTTTCCCGGTAATCCGTATTTGAT (site CGGGATCCTAT)” it is 0.0423; for “CGGGAGTCATGGACCGGTTTTCCCGGTAATCCGTATTTGCT (site CGGGAGTCTAG)” it is 2.6.
As for “CGGGAGTCATGGACCGGTTTTCCCGGTAATCCGTATTTGCT (site CGGGAGTCTCG)”, the “recombinant UMI read abundance (log10)” value came to 2.06.
Turning to “CGGGAGTCATGGACCGGTTTTCCCGGTAATCCGTATTTGCT (site CGGGAGTCTGG)”, the “recombinant UMI read abundance (log10)” value turned out to be 2.26.
To “CGGGAGTCATGGACCGGTTTTCCCGGTAATCCGTATTTGCT (site CGGGAGTCTTG)” belongs 1.47.
Consider “CGGGAGTCATGGACCGGTTTTCCCGGTAATCCGTATTTGTC (site CGGGAGTCTGA)”, for which the “recombinant UMI read abundance (log10)” value came out at 3.19.
Consider “CGGGAGTCATGGACCGGTTTTCCCGGTAATCCGTATTTGTC (site CGGGAGTCTGC)”, for which the “recombinant UMI read abundance (log10)” value was found to be 1.37.
Consider “CGGGAGTCATGGACCGGTTTTCCCGGTAATCCGTATTTGTC (site CGGGAGTCTGG)”, for which the “recombinant UMI read abundance (log10)” value came to 2.03.
For “CGGGAGTCATGGACCGGTTTTCCCGGTAATCCGTATTTGTC (site CGGGAGTCTGT)”, the “recombinant UMI read abundance (log10)” value amounted to 1.9.
In the case of “CGGGCAGCATGGACCGGTTTTCCCGGTAATCCGTATTTGTC (site CGGGCAGCTGA)”, the “recombinant UMI read abundance (log10)” value stood at 1.93.
On to “CGGGCCTCATGGACCGGTTTTCCCGGTAATCCGTATTTGTT (site CGGGCCTCTAA)”, for which the “recombinant UMI read abundance (log10)” value came to 2.54.
Turning to “CGGGGGTCATGGACCGGTTTTCCCGGTAATCCGTATTTGCC (site CGGGAGTCTGG)”, the “recombinant UMI read abundance (log10)” value is 0.865.
Regarding “CGGGGGTCATGGACCGGTTTTCCCGGTAATCCGTATTTGCC (site CGGGCGTCTGG)”, the “recombinant UMI read abundance (log10)” value is 1.7.
On to “CGGGGGTCATGGACCGGTTTTCCCGGTAATCCGTATTTGCC (site CGGGGGTCTGG)”, for which the “recombinant UMI read abundance (log10)” value amounted to 1.86.
For “CGGGGGTCATGGACCGGTTTTCCCGGTAATCCGTATTTGCC (site CGGGTGTCTGG)”, the “recombinant UMI read abundance (log10)” value came to 0.6.
On to “CGGGTACCATGGACCGGTTTTCCCGGTAATCCGTATTTGAT (site CGGGAACCTAT)”, for which the “recombinant UMI read abundance (log10)” value is 0.
“CGGGTACCATGGACCGGTTTTCCCGGTAATCCGTATTTGAT (site CGGGCACCTAT)”: the “recombinant UMI read abundance (log10)” value turned out to be 0.
“CGGGTACCATGGACCGGTTTTCCCGGTAATCCGTATTTGAT (site CGGGGACCTAT)”: the “recombinant UMI read abundance (log10)” value stood at 0.
Consider “CGGGTACCATGGACCGGTTTTCCCGGTAATCCGTATTTGAT (site CGGGTACCTAT)”, for which the “recombinant UMI read abundance (log10)” value amounted to 0.00441.
Turning to “CGGGTGTCATGGACCGGTTTTCCCGGTAATCCGTATTTGTT (site CGGGTGTCTAA)”, the “recombinant UMI read abundance (log10)” value turned out to be 3.07.
Turning to “CGGGTTGCATGGACCGGTTTTCCCGGTAATCCGTATTTGAG (site CGGGTTGCTCT)”, the “recombinant UMI read abundance (log10)” value worked out at 1.79.
In the case of “CGGTACTCATGGACCGGTTTTCCCGGTAATCCGTATTTGGC (site CGGTACTCTGC)”, the “recombinant UMI read abundance (log10)” value is 3.19.
With “CGGTAGCCATGGACCGGTTTTCCCGGTAATCCGTATTTGTT (site CGGAATCCTAA)”, the “recombinant UMI read abundance (log10)” value is 0.00596.
On to “CGGTAGCCATGGACCGGTTTTCCCGGTAATCCGTATTTGTT (site CGGTAGCCTAA)”, for which the “recombinant UMI read abundance (log10)” value came to 0.237.
In the case of “CGGTCATCATGGACCGGTTTTCCCGGTAATCCGTATTTGCT (site CGATCATCTAG)”, the “recombinant UMI read abundance (log10)” value amounted to 1.07.
Take “CGGTCATCATGGACCGGTTTTCCCGGTAATCCGTATTTGCT (site CGCTCATCTAG)”: the “recombinant UMI read abundance (log10)” value came to 0.
For the sequence “CGGTCATCATGGACCGGTTTTCCCGGTAATCCGTATTTGCT (site CGGACATCTAG)”, the “recombinant UMI read abundance (log10)” value came to 0.
The figure for “CGGTCATCATGGACCGGTTTTCCCGGTAATCCGTATTTGCT (site CGGCCATCTAG)” is 2.29.
Regarding “CGGTCATCATGGACCGGTTTTCCCGGTAATCCGTATTTGCT (site CGGGCATCTAG)”, the “recombinant UMI read abundance (log10)” value was found to be 0.
With “CGGTCATCATGGACCGGTTTTCCCGGTAATCCGTATTTGCT (site CGGTCATCTAG)”, the “recombinant UMI read abundance (log10)” value came to 1.7.
Consider “CGGTCATCATGGACCGGTTTTCCCGGTAATCCGTATTTGCT (site CGTTCATCTAG)”, for which the “recombinant UMI read abundance (log10)” value amounted to 0.224.
Regarding “CGGTCCGCATGGACCGGTTTTCCCGGTAATCCGTATTTGCG (site CGGTCCGCTCG)”, the “recombinant UMI read abundance (log10)” value was found to be 0.155.
To “CGGTCTTCATGGACCGGTTTTCCCGGTAATCCGTATTTGCT (site CGATCATCTAG)” belongs 0.
Regarding “CGGTCTTCATGGACCGGTTTTCCCGGTAATCCGTATTTGCT (site CGGTCTTCTAG)”, the “recombinant UMI read abundance (log10)” value is 1.49.
The figure for “CGGTGAGCATGGACCGGTTTTCCCGGTAATCCGTATTTGGA (site CGGTGAGCTTC)” is 1.56; for “CGGTGGACATGGACCGGTTTTCCCGGTAATCCGTATTTGGG (site CGGTGGACTCC)” it is 0.024; for “CGTAACCCATGGACCGGTTTTCCCGGTAATCCGTATTTGGC (site CGTAACCCTGC)” it is 0.629.
Consider “CGTAACTCATGGACCGGTTTTCCCGGTAATCCGTATTTGTA (site CGTAACTCTTA)”, for which the “recombinant UMI read abundance (log10)” value was determined as 2.2.
In the case of “CGTAAGACATGGACCGGTTTTCCCGGTAATCCGTATTTGCA (site AGGAAGACTTG)”, the “recombinant UMI read abundance (log10)” value came out at 0.
With “CGTAAGACATGGACCGGTTTTCCCGGTAATCCGTATTTGCA (site CGTAAGACTTG)”, the “recombinant UMI read abundance (log10)” value came to 2.68.
For “CGTAATACATGGACCGGTTTTCCCGGTAATCCGTATTTGGC (site CATAATACTGC)”, the “recombinant UMI read abundance (log10)” value turned out to be 0.
With “CGTAATACATGGACCGGTTTTCCCGGTAATCCGTATTTGGC (site CCTAATACTGC)”, the “recombinant UMI read abundance (log10)” value amounted to 0.
As for “CGTAATACATGGACCGGTTTTCCCGGTAATCCGTATTTGGC (site CGTAATACTGC)”, the “recombinant UMI read abundance (log10)” value was 1.22.
Consider “CGTAATACATGGACCGGTTTTCCCGGTAATCCGTATTTGGC (site CTTAATACTGC)”, for which the “recombinant UMI read abundance (log10)” value came to 0.
As to “CGTAATACATGGACCGGTTTTCCCGGTAATCCGTATTTGTT (site CGGAATCCTAA)”, the “recombinant UMI read abundance (log10)” value came to 0.
For the sequence “CGTAATACATGGACCGGTTTTCCCGGTAATCCGTATTTGTT (site CGTAATACTAA)”, the “recombinant UMI read abundance (log10)” value was 0.809.
